Data from PMC8705904, “Structural Bases for Hesperetin Derivatives: Inhibition of Protein Tyrosine Phosphatase 1B, Kinetics Mechanism and Molecular Docking Study” (Molecules, 2021).

Assays:
[1] = biological target: T1, PTP1B (human recombinant) (Homo sapiens, UniProt P18031); assay: PTP1B inhibitory assay using pNPP; assay type: biochemical; details: for IC50: mean ± S.E.M of triplicate experiments, substrate pNPP
T1 construct: purchased Biomol International LP (Plymouth Meeting, PA, USA)
T1 sequence (P18031 1-435): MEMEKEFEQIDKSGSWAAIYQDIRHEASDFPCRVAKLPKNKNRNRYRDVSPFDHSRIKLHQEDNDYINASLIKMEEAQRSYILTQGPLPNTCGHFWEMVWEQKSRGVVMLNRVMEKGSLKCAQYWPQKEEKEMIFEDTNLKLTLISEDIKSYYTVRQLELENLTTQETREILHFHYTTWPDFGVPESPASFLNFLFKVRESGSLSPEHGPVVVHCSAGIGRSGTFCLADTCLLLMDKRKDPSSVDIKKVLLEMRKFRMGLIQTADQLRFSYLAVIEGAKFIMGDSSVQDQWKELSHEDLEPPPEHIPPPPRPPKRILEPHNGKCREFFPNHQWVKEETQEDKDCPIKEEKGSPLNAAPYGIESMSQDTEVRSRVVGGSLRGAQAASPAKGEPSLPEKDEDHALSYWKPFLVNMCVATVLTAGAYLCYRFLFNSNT
Description: (§1) The PTP1B inhibitory activity was evaluated using pNPP according to the work of Jung et al.. In each well of a 96-well plate (each with a final volume of 100 µL), 40 µL of PTP1B enzyme [0.5 units diluted with a PTP1B reaction buffer containing 50 mM citrate (pH 6.0), 0.1 M NaCl, 1 mM EDTA, and 1 mM DTT] was added with or without the sample dissolved in 10% DMSO. The plate was preincubated at 37 °C for 10 min and then 50 µL of 2 mM pNPP in the PTP1B reaction buffer was added. Following incubation at 37 °C for 20 min, the reaction was terminated by the addition of 10 M NaOH. […] The inhibition percentage was obtained using the following equation: % inhibition = (Ac − As)/Ac × 100, where Ac is the absorbance of the control and As is the absorbance of the sample.

[2] = biological target: T1, PTP1B (human recombinant); assay: Kinetic analysis of PTP1B inhibition (Lineweaver–Burk and Dixon plots); assay type: biochemical; details: for Ki: determined by Dixon plots; for PTP1B type of inhibition: determined by Lineweaver–Burk plots, pNPP 0.5, 1.0 and 2.0 mM
Description: as §1
To determine the kinetic mechanism, two kinetic methods using Lineweaver–Burk and Dixon plots were complementarily used. […] The enzymatic inhibitions of the test flavonoids were evaluated by monitoring the effects of different concentrations of the […] in the Dixon plots (single reciprocal plot). The enzymatic procedure consisted of the same, aforementioned, PTP1B assay method. The inhibition constants (Ki) were determined by interpretation of the Dixon plots, where the value of the x-axis implies -Ki.

Row | SMILES | IC50 [1] | Ki [2] | PTP1B type of inhibition [2] | PTP1B type of inhibition ([2]; listed as hesperetin) | PTP1B inhibitory activity (in words) [1] | PTP1B type of inhibition ([2]; listed as hesperetin 5-O-glucoside) | PTP1B type of inhibition ([2]; listed as neohesperidin) | PTP1B type of inhibition ([2]; listed as hesperidin)
1 | COc1ccc([C@@H]2CC(=O)c3c(O)cc(O)cc3O2)cc1O [Hesperetin] | 288 ± 7.98 µM | 295 µM | Uncompetitive | uncompetitive-type inhibition |  |  |  | 
2 | COc1ccc(C2CC(=O)c3c(O)cc(OC4OC(COC5OC(C)C(O)C(O)C5O)C(O)C(O)C4O)cc3O2)cc1O (stereo not drawn) [Hesperidin, hesperetin 7-O-rutinoside] | 58.1 ± 4.18 µM | 50 µM | Mixed |  |  |  |  | mixed-type inhibition
3 | COc1ccc(C2CC(=O)c3c(O)cc(OC4OC(CO)C(O)C(O)C4O)cc3O2)cc1O (stereo not drawn) [Hesperetin 7-O-glucoside] | > 300 µM |  |  |  | inactive |  |  | 

Continued by falling IC50 [1], values first:

Row | IC50 [1] | Ki [2] | PTP1B type of inhibition [2] | PTP1B type of inhibition ([2]; listed as hesperetin) | PTP1B inhibitory activity (in words) [1] | PTP1B type of inhibition ([2]; listed as hesperetin 5-O-glucoside) | PTP1B type of inhibition ([2]; listed as neohesperidin) | SMILES | PTP1B type of inhibition ([2]; listed as hesperidin)
4 | 144 ± 3.04 µM | 154 µM | Uncompetitive |  |  |  | uncompetitive-type inhibition | COc1ccc(C2CC(=O)c3c(O)cc(OC4OC(CO)C(O)C(O)C4OC4OC(C)C(O)C(O)C4O)cc3O2)cc1O (stereo not drawn) [Neohesperidin, hesperetin 7-O-neohesperidoside] | 
5 | 37.14 ± 0.07 µM | 81.6 µM | Mixed |  |  | mixed-type inhibition |  | COc1ccc(C2CC(=O)c3c(cc(O)cc3OC3OC(CO)C(O)C(O)C3O)O2)cc1O (stereo not drawn) [Hesperetin 5-O-glucoside] | 
